Experimental data as given in patent US20070232588A1, “Anti-parasitic and/or anti-viral and/or anti-microbial compositions” (priority 2004, published 2007).
Converted amounts (≈) assume the structure as drawn.

Legend:
[1] = Countercurrent distribution, KrKb (partition coefficient x dissociation constant); assay type: physicochemical
Protocol: The diverse tertiary alkaloids contained in the basic extract of Example 1, were separated by countercurrent distribution, with dichloromethane as the stationary phase and an aqueous buffer with an incrementally decreasing pH (mobile phase). The alkaloids were recovered from the aqueous phase by extraction with dichloromethane.
The equipment used was a Craig type Post apparatus made up of 200 glass tubes (with 10 ml volumes for the lower phase and 10 ml volumes for the upper phase).

[2] = test system: Leishmania infantum promastigotes; experiment: In vitro leishmanicidal activity, MTT assay; assay type: cell-based; conditions: for Fold Increase (IC50), voacamine with respect to the basic extract: ratio of IC50
Protocol: Preparation of the anti-leishmanial compositions: The total plant extract was dissolved in DMSO as a 50 mg/mL stock. The purified alkaloid, voacamine, was dissolved in 50% DMSO at a 3 mg/mL stock.
In vitro drug testing. […] 10 μL of 3-(4,5-dimethylthiazol-2-yl)-2,5-diphenyl-2H-tetrazol bromide (MTT, Sigma, 5 mg/mL in PBS) were added to each well and plates were incubated for an additional period of 5 hours. Only viable cells are able to reduce the MTT compound to produce water-insoluble formazan crystals of a purple color. These crystals were dissolved by adding 100 μL of SDS 20% and incubating overnight at 37° C. The absorbance was subsequently read at 540 nanometers using a microplate reader (Beckman Biomek 2000). Cell survival was determined by dividing the absorbance of the compound at a given concentration by the absorbance of control cells grown in the absence of drug. The 50% inhibitory concentration (IC50) values were graphically determined after plotting the percentage of growth as a function of drug concentration. All experiments were performed in duplicate.

[3] = test system: Plasmodium falciparum Strain W2; experiment: In vitro antiplasmodial activity (IC50), strain W2; assay type: cell-based
Protocol: (§1) The basic extracts obtained as in Example 1, from both the root and stem bark with a yield of 1.9% were used to carry out the in vitro antiplasmodial activity study on known Plasmodium falciparum strains.
(§2) Plasmodium falciparum strains D6 and W2 were used throughout this investigation. Laboratory isolates of P. falciparum were grown under controlled conditions in culture medium containing leukocyte-free red blood cells (RBCs) at 5% hematocrit (Tager and Jensen, 1976). Briefly, parasites were allowed to infect RBCs in a media consisting of RPMI 1640 plus 25 mM Hepes, 0.25 glucose, 0.2% sodium bicarbonate, 0.5% Albumax II, and 50 mg/liter hypoxanthine and grown in 5% CO2 at 37° C. […]
(§3) Assessment of parasite development and morphology. Parasite development and morphology were evaluated by microscopic examination of Giemsa-stained thin blood smears at 24, 48, and 72 hour intervals in the presence of increasing doses of the alkaloids dissolved as a stock solution in 10% (v/v) dimethylsulphoxide (DMSO) in RPMI 1640. […] Smears from drug-free cultures were always used as controls Parasitemia was measured by counting blood cells and expressed as percentage of total parasitized erythrocytes (Table 3).

[4] = test system: Plasmodium falciparum Strain D6; experiment: In vitro antiplasmodial activity (IC50), strain D6; assay type: cell-based
Protocol: as §1, §2, §3

CC=C1CN(C)C2Cc3c([nH]c4ccccc34)C(=O)CC1C2CO (stereo not drawn) [16-epi-affinine]
KrKb (Kr partition coefficient aqueous phase/organic phase, Kb dissociation constant) [1]: 2.5×10^−9

C/C=C1/CN2[C@H]3Cc4c(n(C)c5ccccc45)[C@@H]2C[C@@H]1[C@@]3(CO)C(=O)OC [voachalotine]
KrKb (Kr partition coefficient aqueous phase/organic phase, Kb dissociation constant) [1]: 2×10^−11

CC=C1CN(C)C2Cc3c([nH]c4ccccc34)C(c3cc4[nH]c5c(c4cc3OC)CCN3CC4CC(CC)C3C5(C(=O)OC)C4)CC1C2C(=O)OC (stereo not drawn) [Ex. 2, voacamine]
IC90 ([2]; Leishmania infantum, 72 h): 7 µg/mL (≈ 9.93 µM) | IC50 ([2]; Leishmania infantum, 72 h, read-out: IC50 (concentration required to kill 50% of the parasites)): 3.3 µg/mL (≈ 4.68 µM) | concentration producing complete cellular destruction ([2]; before 72 hours): 10 µg/mL | Fold Increase (IC50), voacamine with respect to the basic extract ([2]; listed as Voacamine): 20.7 fold | Fold Increase (IC50), voacamine with respect to the basic extract ([2]; listed as voacamine): 20 fold | Fold Increase (IC90), voacamine with respect to the basic extract ([2]; ratio of IC90): 15.7 fold | IC50 [3]: 0.29 µg/mL (≈ 0.411 µM) | IC50 [4]: 0.238 µg/mL (≈ 0.338 µM)

N-demethylvoacamine
KrKb (Kr partition coefficient aqueous phase/organic phase, Kb dissociation constant) [1]: 3.5×10^−11

C/C=C1/CN2[C@H]3C[C@@H]1[C@@H](CO)[C@@H]2Cc1c3n(C)c2ccccc12 [affinisine]
KrKb (Kr partition coefficient aqueous phase/organic phase, Kb dissociation constant) [1]: 7×10^−10
